Source: patent US8586588B2, “Aryl pyridazinone derivatives and their use as H3 receptor ligands” (Cephalon, Inc., priority 2006, dated 2013)
Where a name gives a salt, the structure may show the parent alone.

Row | melting point | Structure (SMILES)
1 | 232 to 233 °C | Cc1cc(-c2ccc(OCCCN3CCCCC3)cc2)nn(Cc2ccccc2)c1=O (as salt: HCl) [Example 44, 2-Benzyl-4-methyl-6-[4-(3-piperidin-1-yl-propoxy)-phenyl]-2H-pyridazin-3-one]
2 | 186 to 187 °C | Cn1nc(-c2ccc(OCCCN3CCCCC3)cc2)cc(Cc2ccccc2)c1=O (as salt: HCl) [Example 46, 4-Benzyl-2-methyl-6-[4-(3-piperidin-1-yl-propoxy)-phenyl]-2H-pyridazin-3-one]
3 | 212 to 214 °C | Cn1nc(-c2ccc(OCCCN3CCCCC3)cc2)c(-c2ccccc2)cc1=O (as salt: HCl) [Example 48, 2-Methyl-5-phenyl-6-[4-(3-piperidin-1-yl-propoxy)-phenyl]-2H-pyridazin-3-one]
4 | 216 to 217 °C | C[C@@H]1CCCN1CCCOc1ccc(-c2nn(C)c(=O)c3ccccc23)cc1 (as salt: HCl) [Example 49, 2-Methyl-4-{4-[3-((R)-2-methyl-pyrrolidin-1-yl)-propoxy]-phenyl}-2H-phthalazin-1-one]
5 | 253 to 254 °C | Cn1nc(-c2ccc(OCCN3CCCCC3)cc2)c2ccccc2c1=O (as salt: HCl) [Example 51, 2-Methyl-4-[4-(2-piperidin-1-yl-ethoxy)-phenyl]-2H-phthalazin-1-one]
6 | 201 to 203 °C | Cn1nc(-c2ccc(OCCCN3CCCC3)cc2)c2ccccc2c1=O (as salt: HCl) [Example 52, 2-Methyl-4-[4-(3-pyrrolidin-1-yl-propoxy)-phenyl]-2H-phthalazin-1-one]
7 | 238 to 240 °C | Cn1nc(-c2ccc(OCCCN3CCCCCC3)cc2)c2ccccc2c1=O (as salt: HCl) [Example 53, 4-[4-(3-Azepan-1-yl-propoxy)-phenyl]-2-methyl-2H-phthalazin-1-one]
8 | 216 to 217 °C | O=c1c2ccccc2c(-c2ccc(OCCCN3CCCCC3)cc2)nn1Cc1ccc(Cl)cc1 (as salt: HCl) [Example 55, 2-(4-Chloro-benzyl)-4-[4-(3-piperidin-1-yl-propoxy)-phenyl]-2H-phthalazin-1-one]
9 | 214 to 216 °C | Cn1nc(-c2ccc(OCCCN3CCCCC3)cc2)c2c(c1=O)CCC2 (as salt: HCl) [Example 57, 2-Methyl-4-[4-(3-piperidin-1-yl-propoxy)-phenyl]-2,5,6,7-tetrahydro-cyclopenta[d]pyridazin-1-one]
10 | < 50 °C | C[C@@H]1CCCN1CCCOc1ccc(C2=NN(C)C(=O)C3CCCC23)cc1 (stereo partly drawn) (as salt: HCl) [Example 58, 2-Methyl-4-{4-[3-((R)-2-methyl-pyrrolidin-1-yl)-propoxy]-phenyl}-2,4a,5,6,7,7a-hexahydro-cyclopenta[d]pyridazin-1-one]
11 | < 50 °C | CN1N=C(c2ccc(OCCCN3CCCCC3)cc2)C2CCCC2C1=O (centres unmarked) (as salt: HCl) [Example 59, 2-Methyl-4-[4-(3-piperidin-1-yl-propoxy)-phenyl]-2,4a,5,6,7,7a-hexahydro-cyclopenta[d]pyridazin-1-one]
12 | 156 to 158 °C | C[C@@H]1CCCN1CCCOc1ccc(-c2nn(C)c(=O)c3c2CCCC3)cc1 (as salt: HCl) [Example 60, 2-Methyl-4-{4-[3-((R)-2-methyl-pyrrolidin-1-yl)-propoxy]-phenyl}-5,6,7,8-tetrahydro-2H-phthalazin-1-one]
13 | 196 to 198 °C | Cn1nc(-c2ccc(OCCCN3CCCCC3)cc2)c2c(c1=O)CCCC2 (as salt: HCl) [Example 61]
14 | 250 to 252 °C | Cn1nc(-c2ccc(OCC3CCN(C4CCC4)CC3)cc2)ccc1=O (as salt: HCl) [Example 67, 6-[4-(1-Cyclobutyl-piperidin-4-ylmethoxy)-phenyl]-2-methyl-2H-pyridazin-3-one]
15 | 230 to 231 °C | Cn1nc(-c2ccc(OCC3CCN(CC4CC4)CC3)cc2)ccc1=O (as salt: HCl) [Example 69, 6-[4-(1-Cyclopropylmethyl-piperidin-4-ylmethoxy)-phenyl]-2-methyl-2H-pyridazin-3-one]
16 | 250 to 251 °C | Cn1nc(-c2ccc(OCC3CCN(C4CCCC4)CC3)cc2)ccc1=O (as salt: HCl) [Example 70, 6-[4-(1-Cyclopentyl-piperidin-4-ylmethoxy)-phenyl]-2-methyl-2H-pyridazin-3-one]
17 | 251 to 252 °C | Cn1ncc2ccc(OCCCN3CCCCC3)cc2c1=O (as salt: HCl) [Example 80, 2-Methyl-7-(3-piperidin-1-yl-propoxy)-2H-phthalazin-1-one]
18 | 176 to 178 °C | Cc1nn(C)c(=O)cc1-c1ccc(OCCCN2CCC[C@H]2C)cc1 (as salt: HCl) [Example 86, 2,6-Dimethyl-5-{4-[3-((R)-2-methyl-pyrrolidin-1-yl)-propoxy]-phenyl}-2H-pyridazin-3-one]
19 | 266 to 268 °C | O=c1cc(-c2ccc(OCCCN3CCCCC3)cc2)cnn1-c1ccccn1 (as salt: HCl) [Example 95, 5-[4-(3-Piperidin-1-yl-propoxy)-phenyl]-2-pyridin-2-yl-2H-pyridazin-3-one]
20 | 230 to 232 °C | O=c1cc(-c2ccc(OCCCN3CCCCCC3)cc2)cnn1-c1ccccn1 (as salt: HCl) [Example 96, 5-[4-(3-Azepan-1-yl-propoxy)-phenyl]-2-pyridin-2-yl-2H-pyridazin-3-one]
21 | 240 to 242 °C | O=c1ccc(-c2ccc(OCCCN3CCCCC3)c(F)c2)n[nH]1 (as salt: HCl) [Example 120, 6-[3-Fluoro-4-(3-piperidin-1-yl-propoxy)-phenyl]-2H-pyridazin-3-one]

The remaining lines, values behind:

Row | Structure (SMILES) | melting point
22 | C[C@@H]1CCCN1CCCOc1ccc(-c2cc(Cc3ccccc3)c(=O)n(C)n2)cc1 (as salt: HCl) [Example 45, 4-Benzyl-2-methyl-6-{4-[3-((R)-2-methyl-pyrrolidin-1-yl)-propoxy]-phenyl}-2H-pyridazin-3-one] | 232 to 233 °C
23 | C[C@@H]1CCCN1CCCOc1ccc(-c2nn(C)c(=O)cc2-c2ccccc2)cc1 (as salt: HCl) [Example 47, 2-Methyl-6-{4-[3-((R)-2-methyl-pyrrolidin-1-yl)-propoxy]-phenyl}-5-phenyl-2H-pyridazin-3-one] | 207 to 209 °C
24 | C[C@@H]1CCCN1CCCOc1ccc(-c2nn(Cc3ccc(Cl)cc3)c(=O)c3ccccc23)cc1 (as salt: HCl) [Example 54, 2-(4-Chloro-benzyl)-4-{4-[3-((R)-2-methyl-pyrrolidin-1-yl)-propoxy]-phenyl}-2H-phthalazin-1-one] | 217 to 218 °C
25 | Cn1nc(-c2ccc(OCC3CCNCC3)cc2)c2ccccc2c1=O (as salt: HCl) [Example 63, 2-Methyl-4-[4-(piperidin-4-ylmethoxy)-phenyl]-2H-phthalazin-1-one] | 207 to 209 °C
26 | Cn1nc(-c2ccc(OCC3CCN(C4CCC4)CC3)cc2)c2ccccc2c1=O (as salt: HCl) [Example 64, 4-[4-(1-Cyclobutyl-piperidin-4-ylmethoxy)-phenyl]-2-methyl-2H-phthalazin-1-one] | 256 to 257 °C
27 | Cn1nc(-c2ccc(OCC3CCNCC3)cc2)ccc1=O (as salt: HCl) [Example 66, 2-Methyl-6-[4-(piperidin-4-ylmethoxy)-phenyl]-2H-pyridazin-3-one] | 249 to 251 °C
28 | CC(C)N1CCC(COc2ccc(-c3ccc(=O)n(C)n3)cc2)CC1 (as salt: HCl) [Example 68, 6-[4-(1-Isopropyl-piperidin-4-ylmethoxy)-phenyl]-2-methyl-2H-pyridazin-3-one] | 187 to 189 °C
29 | CN1CCC(COc2ccc(-c3ccc(=O)n(C)n3)cc2)CC1 (as salt: HCl) [Example 71, 2-Methyl-6-[4-(1-methyl-piperidin-4-ylmethoxy)-phenyl]-2H-pyridazin-3-one] | 257 to 258 °C
30 | CC(C)N1CCC(Oc2ccc(-c3ccc(=O)n(C)n3)cc2)CC1 (as salt: HCl) [Example 72] | 108 to 110 °C
31 | C[C@@H]1CCCN1CCCOc1ccc2c(c1)CCc1cc(=O)n(-c3ccccc3)nc1-2 (as salt: HCl) [Example 76, 8-[3-((R)-2-Methyl-pyrrolidin-1-yl)-propoxy]-2-phenyl-5,6-dihydro-2H-benzo[h]cinnolin-3-one] | 140 to 142 °C
32 | C[C@@H]1CCCN1CCCOc1ccc(-c2ccc(=O)n(-c3ccccc3)n2)cc1F (as salt: HCl) [Example 81, 6-{3-Fluoro-4-[3-((R)-2-methyl-pyrrolidin-1-yl)-propoxy]-phenyl}-2-phenyl-2H-pyridazin-3-one] | 190 to 191 °C
33 | C[C@@H](COc1ccc(-c2ccc(=O)n(C)n2)cc1)CN1CCC[C@H]1C (as salt: HCl) [Example 82, 2-Methyl-6-{4-[(R)-2-methyl-3-((R)-2-methyl-pyrrolidin-1-yl)-propoxy]-phenyl}-2H-pyridazin-3-one] | 76 to 78 °C
34 | Cc1n[nH]c(=O)cc1-c1ccc(OC2CCN(C3CCC3)CC2)cc1 (as salt: HCl) [Example 103, 5-[4-(1-Cyclobutyl-piperidin-4-yloxy)-phenyl]-6-methyl-2H-pyridazin-3-one] | 296 to 297 °C
35 | Cc1nn(-c2ccsc2)c(=O)cc1-c1ccc(OC2CCN(C3CCC3)CC2)cc1 (as salt: HCl) [Example 107, 5-[4-(1-Cyclobutyl-piperidin-4-yloxy)-phenyl]-6-methyl-2-thiophen-3-yl-2H-pyridazin-3-one] | 277 to 279 °C
36 | Cc1nn(-c2ccsc2)c(=O)cc1-c1ccc(OCCCN2CCC[C@H]2C)cc1 (as salt: HCl) [Example 108, 6-Methyl-5-{4-[3-((R)-2-methyl-pyrrolidin-1-yl)-propoxy]-phenyl}-2-thiophen-3-yl-2H-pyridazin-3-one] | 212 to 213 °C
37 | CC1CC(c2ccc(OC3CCN(C4CCC4)CC3)cc2)=NNC1=O (centres unmarked) (as salt: HCl) [Example 116, 6-[4-(1-Cyclobutyl-piperidin-4-yloxy)-phenyl]-4-methyl-4,5-dihydro-2H-pyridazin-3-one] | 257 to 259 °C
38 | C[C@@H]1CCCN1CCCOc1ccc(-c2ccc(=O)[nH]n2)cc1F (as salt: HCl) [Example 119, 6-{3-Fluoro-4-[3-((R)-2-methyl-pyrrolidin-1-yl)-propoxy]-phenyl}-2H-pyridazin-3-one] | 252 to 253 °C
